The record followed here is publication PMC10047683, “A Novel Family of Lysosomotropic Tetracyclic Compounds for Treating Leukemia” (Cancers, 2023).

One data set in a line: ADME-Tox: solubility. In kind it is physicochemical. As to the method:
(§1) All ADMET studies were performed in Eurofins Discovery Services (CEREP laboratories, Celle-Lévescault France). The pharmacokinetic studies were performed in Draconis Pharma SL (Barcelona, Spain) in CD-1 mice treated with 30 mg/kg EDK87 or EDK88 via SC or OG. Blood was collected by cardiac puncture at 0.5, 1, 2, 4, or 24 h.

The subject of data set [1] is intracellular calcium in HL60 cells. Briefly: Calcium mobilization assay (Fura2 probe). To be noted: 10 µM EDK-87/EDK-88, 50 µM chloroquine. In kind it is cell-based. Here is the method: 1,000 cells of AML cell lines or 50,000 primary cells (both AML and lin-depleted UCB) were treated at the indicated concentration for 18 h, and cultured in 1 mL of MethoCult H4034 Optimum (StemCell Technologies, Vancouver, BC, Canada).
Colonies were screened based on morphology and cellularity at day 7 (cell lines) […]
Calcium mobilization assay
1 x 10^6 cells per mL were loaded for 30’ at 37 °C with the Fura-2-AM probe (Thermo Fisher) at a final 2 µM concentration in pre-warmed calcium- and magnesium-free Hanks BSA solution. Cells were then washed and resuspended in Hanks BSA solution with calcium and magnesium at 3 x 10^5 cells per mL. In parallel, 50µL of drugs in Hanks BSA solution with calcium and magnesium were added to 96-well black wall clear bottom plates and background fluorescence […]
Cells were then added to the plate
(50µL/well) and fluorescence was acquired at indicated timepoints using a Synergy HT Multi-Detection Microplate Reader (BioTek). For the analysis, all values were subtracted their corresponding background fluorescence, and the ratio 340/380 was calculated. Finally, ratios were normalized to vehicle-treated […]
Semi-Quantitative Real Time PCR
(In general: A change in cytosolic calcium serves as a functional read-out for many receptors and channels.)

Data set [2] can be described thus: Pharmacokinetic study in mice. In kind it is in vivo, CD-1 mice. To be noted: 30 mg/kg orally and subcutaneously. As to the method: as §1
Data set [3] concerns MonoMac1. The experiment in a line: Dose-response viability curves in AML cell lines. The settings on record: Mono-Mac-1, 48 h. In kind it is cell-based. Here is the method:
(§2) First, 2 × 10^5 (72 h assays in cell lines (Supplementary File S1)), 3 × 10^5 (48 h assays in cell lines) or 7.5 × 10^5 (primary AML, healthy donor buffy coats) cells per mL were cultured in 96-well plates, and all drugs were added at the indicated concentrations. In α-tocopherol experiments, cells were treated with growing concentrations of α-tocopherol and EDK drugs for 48 h. In the NAC and 3MA experiments, treatment was simultaneous with EDK compounds. In glucose deprivation experiments, cells were cultivated with a standard medium (glucose high, 2 g/L), a standard medium without glucose, or a standard medium with galactose (2 g/L) and without glucose. Cell viability was measured via 7-AAD (eBioscience) exclusion and Hoechst33342 (Sigma-Aldrich, St. Louis, MO, USA) positivity staining via flow cytometry, and the cell count was obtained through volume. In the experiments with the primary cells, analyses were performed inside the blast population as detected via blast gates (CD45^low SSC^int). For solid tumor cell lines, viability was analyzed using CellTiter-Glo® Luminescent Cell Viability Assay (Promega).

The subject of a further data set is U937. Briefly: Dose-response viability curves in AML cell lines. The format is cell-based. The settings on record: Homo sapiens, U-937, 48 h. As to the method:
as §2

The next data set deals with Kasumi-1. Briefly: Dose-response viability curves in AML cell lines. In kind it is cell-based. To be noted: Homo sapiens, 48 h. As to the method:
as §2

A further data set deals with SKM-1. Briefly: Dose-response viability curves in AML cell lines. The format is cell-based. The settings on record: Homo sapiens, 48 h. As to the method:
as §2

The test system of the next data set is THP1. The experiment in a line: Dose-response viability curves in AML cell lines. The format is cell-based. The settings on record: Homo sapiens, THP-1, 48 h. As to the method: as §2
The test system of data set [4] is HL60. The experiment in a line: Dose-response viability curves in AML cell lines. In kind it is cell-based. To be noted: Homo sapiens, HL-60, 48 h. Here is the method:
as §2

The next data set relates to KG1. Briefly: Dose-response viability curves in AML cell lines. In kind it is cell-based. To be noted: Homo sapiens, KG-1, 48 h. As to the method:
as §2

The test system of data set [5] is panel of 7 AML cell lines. Briefly: Dose-response viability curves, whole panel. The format is cell-based. To be noted: mean of the 7 AML cell lines; 48 h. As to the method: as §2
The subject of the next data set is AML cell lines. Briefly: Seahorse oxygen consumption (OCR). The format is cell-based. To be noted: 5 and 10 µM, 24 h. As to the method:
Seahorse studies were performed using the Agilent Seahorse XF Real-Time ATP Rate Assay Kit. […] Cells were washed and suspended in Seahorse medium (Seahorse XF medium with 2 mM glutamine, 10 mM glucose, 2 mM pyruvate) at a concentration of 1.4 × 10^6 (Mono Mac1) and 2.4 × 10^6 (HL60) cells per mL; 50 μL per well were seeded in 96-well Seahorse plates precoated with polylysine, centrifuged, and left to adhere for 20 min at 37 °C before adding prewarmed Seahorse medium to a final volume of 180 μL per well. Basal OCR and ECAR were measured, and the ATP rate assay was performed with the sequential injection of 1.5 μM oligomycin and 0.5 μM rotenone/antimycin A. A detailed description of this protocol was provided by the manufacturers. Mitochondrial ROS was quantified using the MitoSOX Red Mitochondrial Superoxide Indicator (Thermo Fischer Scientific, Waltham, MA, USA), as previously described. The activation of executive caspases was determined using CaspaseGlo® 3/7 Assay (Promega), following the manufacturer’s recommendations. The detection of Annexin-V staining was also described previously.

In data set [6] the test system is MonoMac1. Briefly: Combination with ATO in AML cell lines, viability and Bliss synergy. The settings on record: lower maps (MonoMac1), 48 h. The format is cell-based. Here is the method: as §2
(§3) Synergy was calculated using SynergyFinder 2.0 with the Bliss reference model.

The test system of data set [7] is HL60. The description is as above. To be noted: upper maps (HL60), 48 h. In kind it is cell-based. As to the method: as §2, §3
The next data set deals with T1, hERG (Homo sapiens, UniProt Q12809).
T1 construct: Eurofins Discovery Services (CEREP laboratories)
T1 sequence (Q12809 whole entry): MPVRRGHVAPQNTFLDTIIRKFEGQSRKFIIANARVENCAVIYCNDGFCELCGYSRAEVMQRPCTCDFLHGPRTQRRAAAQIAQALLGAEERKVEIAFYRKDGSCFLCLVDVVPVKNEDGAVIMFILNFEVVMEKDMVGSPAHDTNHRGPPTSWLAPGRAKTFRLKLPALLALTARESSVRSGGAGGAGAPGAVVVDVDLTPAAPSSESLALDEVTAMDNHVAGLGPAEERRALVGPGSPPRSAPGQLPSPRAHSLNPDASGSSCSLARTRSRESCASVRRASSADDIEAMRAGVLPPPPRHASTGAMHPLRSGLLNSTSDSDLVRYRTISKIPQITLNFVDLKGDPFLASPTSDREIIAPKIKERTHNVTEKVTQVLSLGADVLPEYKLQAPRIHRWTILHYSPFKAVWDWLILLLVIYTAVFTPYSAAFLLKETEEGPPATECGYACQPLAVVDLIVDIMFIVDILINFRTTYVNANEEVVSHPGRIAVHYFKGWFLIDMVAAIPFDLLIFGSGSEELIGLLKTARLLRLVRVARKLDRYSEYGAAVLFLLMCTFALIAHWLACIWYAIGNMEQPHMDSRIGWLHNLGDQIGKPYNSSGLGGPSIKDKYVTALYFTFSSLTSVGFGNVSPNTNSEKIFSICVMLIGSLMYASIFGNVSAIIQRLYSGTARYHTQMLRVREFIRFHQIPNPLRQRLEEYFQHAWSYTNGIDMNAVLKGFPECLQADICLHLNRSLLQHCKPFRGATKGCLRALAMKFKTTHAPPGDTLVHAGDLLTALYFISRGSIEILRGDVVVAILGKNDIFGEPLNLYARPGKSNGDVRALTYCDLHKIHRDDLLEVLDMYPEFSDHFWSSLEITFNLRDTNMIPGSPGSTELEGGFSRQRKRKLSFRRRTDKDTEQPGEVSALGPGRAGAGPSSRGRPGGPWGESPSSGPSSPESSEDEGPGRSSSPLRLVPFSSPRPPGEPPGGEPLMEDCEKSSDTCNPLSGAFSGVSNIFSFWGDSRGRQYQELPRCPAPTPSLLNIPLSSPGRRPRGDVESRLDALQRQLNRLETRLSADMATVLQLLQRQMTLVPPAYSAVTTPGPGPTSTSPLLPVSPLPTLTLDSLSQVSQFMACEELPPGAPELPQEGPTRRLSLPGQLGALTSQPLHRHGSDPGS
Briefly: In vitro hERG inhibition. In kind it is biochemical. Here is the method:
as §1
A general note: The hERG channel carries a current that helps repolarise heart muscle cells.

The next data set deals with TFEB. The experiment in a line: TFEB promoter-luciferase reporter. The format is cell-based. The settings on record: HEK293T; 10 and 20 µM, 24 h. As to the method:
We transfected 2.5 × 10^5 HEK-293T cells per condition using the jetPEI DNA transfection reagent (Polyplus) with TFEB promoter-luciferase reporter Addgene#66801. Then, at 24 h post-transfection, cells were treated at the indicated conditions, and the 48 h post-transfection luminescence of lysed cells was analyzed according to the manufacturer’s specifications.
(A reporter such as luciferase makes a cellular process visible.)

Turning to `CN1CCC(=C2c3ccccc3-c3c2sc2ccccc32)CC1` [EDK-87], in the data set “ADME-Tox: solubility”, the “solubility as compared to EDK-88” value was “lower”. Also, the intracellular calcium mobilization result in data set [1] is given as “few changes in calcium release”. Further, in data set [2], the “clearance (PK)” value is listed as “high”. In addition, in data set [2], the plasma level result is on record as “low”. In addition, in data set [2], the volume of distribution result was “high”. The EC50 with MonoMac1 [3] stood at 8.6 ± 1.4 µM; with U937, 6.9 ± 0.07 µM; with Kasumi-1, 6.3 ± 0.35 µM; with SKM-1, 8.1 ± 1.8 µM; in the data set with THP1 it was 11.2 ± 0.01 µM; in the data set on HL60 [4] it was 6.2 ± 0.9 µM. The EC50 in the data set on KG1 amounted to 7 ± 1.2 µM; in data set [5], 7.7 ± 0.7 µM. In addition, the “oxygen consumption (OCR)” value in the data set on AML cell lines is “drastic reduction in oxygen consumption”. Also, the “Effectivity (%Viability reduction)” value with MonoMac1 [6] (EDK compound alone 1 µM) is 29%; with MonoMac1 [6] (EDK compound alone 3 µM), 33%; with MonoMac1 [6] (EDK compound alone 10 µM) it was 61%; in the data set on HL60 [7] (EDK compound alone 1 µM) it was 18%; with HL60 [7] (EDK compound alone 3 µM) it was 30%; with HL60 [7] (EDK compound alone 10 µM), 84%. Moreover, the hERG inhibition entry at hERG is on record as “concerning results”. Besides, in the data set with TFEB, the “TFEB activity (reporter)” value is given as “activation of TFEB activity”.

What is called EC50 is the concentration giving half of the maximal effect. High values mean a need for much substance, low ones an effect from little substance.
